The source of these data is patent US10792282B2, “Protein kinase C inhibitors and uses thereof” (Rigel Pharmaceuticals, Inc., priority 2013, dated 2020).

One may read the EC50 as the concentration needed to bring the measured effect to its halfway point.

SMILES strings stand for the structures. Like-named read-outs stand apart in the source and are kept apart here.

The subject of the test is PKC mediated IL-2 production. Briefly: IL-2 ELISA, human primary T cell, anti CD3+CD28+ (whole cell functional assay). In kind it is cell-based. The protocol: Human primary T cells were prepared as follows. Fresh PBMC's from All Cells (Cat # PB002) were re-suspended in RPMI (RPMI-1640 with L-Glutamine; Mediatech, Inc., Herndon Va., cat. #10-040-CM) with 10% FBS and seeded into flasks and incubated at 37° C. for 2 hours to allow the monocytes to adhere. The non-adherent cells were then centrifuged and re-suspended in RPMI medium containing 40 U/ml IL2 and seeded into a flask pre-coated with 1 μg/ml aCD3 and 5 ug/ml aCD28 (Anti-Human CD3, BD Pharmingen Catalog #555336, Anti-Human CD28, Beckman Coulter Catalog # IM1376). The cells were stimulated for 3-4 days, then transferred to a fresh flask and maintained in RPMI (RPMI-1640 with L-Glutamine; Mediatech, Inc., Herndon Va., cat. #10-040-CM) with 10% FBS and 40 U/ml IL-2.
(§1) Human primary T cells (100,000 cells per well) were pre-incubated with or without test compound in RPMI-1640 with L-Glutamine and 10% FBS for 1 hour at 37° C. Cells were then stimulated by transferring them to round-bottom 96-well plates pre-coated with 1 μg/ml αCD3 and 5 μg/ml αCD28. For counter assay, cells were instead stimulated by adding 8× stock solutions of PMA and ionomycin in RPMI-1640 with L-Glutamine and 10% FBS (for final concentrations of 0.5 ng/ml PMA and 0.1 μM ionomycin, both from Calbiochem). Cells were incubated at 37° C. for 24 hours before 100 μL supernatants were harvested for quantification of IL-2 by ELISA using Human IL-2 Duoset ELISA Kit from R and D Systems, Cat. # DY202E.
Compounds 1-90 were tested in a whole cell functional assay for PKC mediated IL-2 production as follows. Human primary T cell isolation and culture: Human primary T cells were prepared as follows. Whole blood was obtained from a healthy volunteer, mixed 1:1 with PBS, layered on to Ficoll Hypaque (Amersham Pharmacia Biotech, Piscataway, N.J., Catalog #17-1440-03) in 2:1 blood/PBS:ficoll ratio and centrifuged for 30 minutes at 4° C. at 1750 rpm. The cells at the serum: ficoll interface were recovered and washed twice with 5 volumes of PBS. These freshly isolated human peripheral blood mononuclear cells were cultured in Yssel's medium containing 40 U/ml IL2 in a flask pre-coated with 1 μg/ml αCD3 and 5 μg/ml αCD28 (Anti-Human CD3, BD Pharmingen Catalog #555336, Anti-Human CD28, Beckman Coulter Catalog # IM1376). The cells were stimulated for 3-4 days, then transferred to a fresh flask and maintained in RPMI (RPMI-1640 with L-Glutamine; Mediatech, Inc., Herndon Va., cat. #10-040-CM) with 10% FBS and 40 U/ml IL-2. The primary T-cells were then washed twice with PBS to remove the IL-2.
as §1, with “Primary T cell stimulation and IL2 ELISA: Human primary” for “Human primary”, “compound in Yssel's medium for 1” for “compound in RPMI-1640 with L-Glutamine and 10% FBS for 1”, “ionomycin in Yssels (for final” for “ionomycin in RPMI-1640 with L-Glutamine and 10% FBS (for final”, “and 0.1 uM ionomycin, both” for “and 0.1 μM ionomycin, both”
(In general: An ELISA detects its analyte on a solid surface through an enzyme-linked reagent.)

[1] abbreviates: IL-2 production, human primary T cells stimulated with αCD3 and αCD28, 24 hours, IL-2 by ELISA, read-out: EC50.
[2] abbreviates: Homo sapiens, T-cell, 24 h, IL-2 production, human primary T cells stimulated with αCD3 and αCD28, 24 hours, IL-2 by ELISA, read-out: EC50.
The mark [3] stands for this setting: Homo sapiens, T-cell, human primary T cells stimulated with αCD3 and αCD28, IL-2 by ELISA, read-out: EC50 (blocked IL-2 production).

With `Cn1nnn(-c2cc(Nc3ncc(C#N)c(NC4CC5CCCN5C(C)(C)C4)n3)c(F)cc2C2CC2)c1=O` (stereo not shown) [Compound 66, 4-((R/S,S/R)-Octahydro-5,5-dimethylindolizin-7-ylamino)-2-(4-cyclopropyl-2-fluoro-5-(4,5-dihydro-4-methyl-5-oxotetrazol-yl)phenylamino) pyrimidine-5-carbonitrile], under setting [1], the EC50 was less than 0.1 µM. Turning to `CC1(C)C[C@H](Nc2nc(Nc3cc(-n4cnnn4)c(C4CC4)cc3F)ncc2F)C[C@@H]2CC(F)(F)CN21` [Compound 46, N^2-(4-cyclopropyl-2-fluoro-5-(1H-tetrazol-1-yl)phenyl)-5-fluoro-N^4-((7R,8aR)-2,2-difluoro-octahydro-5,5-dimethylindolizin-7-yl)pyrimidine-2,4-diamine], the concentration for a half-maximal effect (EC50) reads like this: under setting [2], less than 1 µM; under setting [3], less than 10 µM. `Cn1nnn(-c2cc(Nc3ncc(F)c(N[C@@H]4C[C@@H]5CCCN5C(C)(C)C4)n3)c(F)cc2OCCO)c1=O` [Compound 77, 1-(2-(2-hydroxyethoxy)-5-(4-((7R,8aS)-octahydro-5,5-dimethylindolizin-7-ylamino)-5-fluoropyrimidin-2-ylamino)-4-fluorophenyl)-4-methyl-1H-tetrazol-5(4H)-one]: the concentration for a half-maximal effect (EC50) (T-cell, human primary T cells stimulated with αCD3 and αCD28, IL-2 by ELISA, read-out: EC50 (blocked IL-2 production)) was less than 10 µM.

Regarding `Cn1nnn(-c2cc(Nc3ncc(F)c(N[C@@H]4C[C@@H]5CCC(=O)N5C(C)(C)C4)n3)c(F)cc2C2CC2)c1=O` (racemic) [Compound 31, 1-(5-(5-fluoro-4-(hexahydro-5,5-dimethylindolizin-3(5H)-one-7-ylamino)pyrimidin-2-ylamino)-2-cyclopropyl-4-fluorophenyl)-4-methyl-1H-tetrazol-5(4H)-one], the half-maximal effective concentration (EC50) by setting is: under setting [2], less than 10 µM; under setting [3], less than 10 µM.

As for `Cn1nnn(-c2cc(Nc3ncc(F)c(NC4CC5CCCN5C(C)(C)C4)n3)ccc2OC2COC2)c1=O` (racemic) [Compound 38, 1-(5-(5-fluoro-4-(octahydro-5,5-dimethylindolizin-7-ylamino)pyrimidin-2-ylamino)-2-(oxetan-3-yloxy)phenyl)-4-methyl-1H-tetrazol-5(4H)-one], the concentration for a half-maximal effect (EC50) under setting [1] was less than 0.5 µM. With `Cn1nnn(-c2cc(Nc3ncc(F)c(NC4CC5CCCN5C(C)(C)C4)n3)ccc2O[C@H]2CCOC2)c1=O` (stereo partly drawn) [Compound 49, 1-(2-((S)-tetrahydrofuran-3-yloxy)-5-(5-fluoro-4-(octahydro-5,5-dimethylindolizin-7-ylamino)pyrimidin-2-ylamino)phenyl)-4-methyl-1H-tetrazol-5(4H)-one], the EC50 is, setting by setting: under setting [2], less than 0.1 µM; under setting [3], less than 10 µM.

On to `Cn1nnn(-c2cc(Nc3ncc(F)c(N[C@@H]4C[C@@H]5CCCN5C(C)(C)C4)n3)c(F)cc2OC(C)(C)CO)c1=O` [Compound 85, 1-(2-(1-hydroxy-2-methylpropan-2-yloxy)-5-(4-((7R,8aS)-octahydro-5,5-dimethylindolizin-7-ylamino)-5-fluoropyrimidin-2-ylamino)-4-fluorophenyl)-4-methyl-1H-tetrazol-5(4H)-one], for which the concentration giving a half-maximal response (EC50) under setting [2] is less than 0.5 µM and the EC50 under setting [3] was less than 10 µM. `Cn1nnn(-c2cc(Nc3ncc(F)c(N[C@@H]4C[C@@H]5CCCN5C(C)(C)C4)n3)ccc2OC2CCOCC2)c1=O` [Compound 52, 1-(5-(5-fluoro-4-(octahydro-5,5-dimethylindolizin-7-ylamino)pyrimidin-2-ylamino)-2-(tetrahydro-2H-pyran-4-yloxy)phenyl)-4-methyl-1H-tetrazol-5(4H)-one]: the EC50 is, setting by setting: under setting [2], less than 0.5 µM; under setting [3], less than 10 µM.

Take `Cn1nnn(-c2cc(Nc3ncc(F)c(N[C@H]4CCN5[C@@H](CCC5(C)C)C4)n3)c(F)cc2C2CC2)c1=O` (single isomer, unassigned) [Compound 37]: the EC50 under setting [1] is less than 10 µM. Consider `Cn1nnn(-c2cc(Nc3ncc(F)c(NC4CC5CCCN5C(C)(C)C4)n3)ccc2O[C@@H]2CCOC2)c1=O` (stereo partly drawn) [Compound 47, 1-(2-((R)-tetrahydrofuran-3-yloxy)-5-(5-fluoro-4-(octahydro-5,5-dimethylindolizin-7-ylamino)pyrimidin-2-ylamino)phenyl)-4-methyl-1H-tetrazol-5(4H)-one], for which the half-maximal effective concentration (EC50) reads like this: under setting [2], less than 0.1 µM; under setting [3], less than 10 µM. For `Cn1nnn(-c2cc(Nc3ncc(F)c(N[C@@H]4C[C@@H]5CCCN5C(C)(C)C4)n3)ccc2O[C@H]2CCOC2)c1=O` [Compound 50, 1-(2-((S)-tetrahydrofuran-3-yloxy)-5-(5-fluoro-4-(octahydro-5,5-dimethylindolizin-7-ylamino)pyrimidin-2-ylamino)phenyl)-4-methyl-1H-tetrazol-5(4H)-one], the EC50 by setting is: under setting [2], less than 0.1 µM; under setting [3], less than 10 µM. `Cn1nnn(-c2cc(Nc3ncc(F)c(N[C@@H]4C[C@@H]5CCCN5C(C)(C)C4)n3)ccc2O[C@@H]2CCOC2)c1=O` [Compound 48, 1-(2-((R)-tetrahydrofuran-3-yloxy)-5-(5-fluoro-4-(octahydro-5,5-dimethylindolizin-7-ylamino)pyrimidin-2-ylamino)phenyl)-4-methyl-1H-tetrazol-5(4H)-one]: the EC50 reads like this: under setting [2], less than 0.1 µM; under setting [3], less than 10 µM. Regarding `C[C@@H](O)COc1cc(F)c(Nc2ncc(C#N)c(N[C@@H]3C[C@@H]4CCCN4C(C)(C)C3)n2)cc1-n1nnn(C)c1=O` [Compound 90, 4-((7R,8aS)-octahydro-5,5-dimethylindolizin-7-ylamino)-2-(4-((R)-2-hydroxypropoxy)-2-fluoro-5-(4,5-dihydro-4-methyl-5-oxotetrazol-1-yl)phenylamino)pyrimindine-5-carbonitrile], the EC50 is, setting by setting: under setting [2], less than 0.1 µM; under setting [3], less than 10 µM. Regarding `Cn1nnn(-c2cc(Nc3ncc(F)c(NC4CC(=O)N5C(CCC5(C)C)C4)n3)c(F)cc2C2CC2)c1=O` (stereo not shown) [Compound 30], the EC50 runs as follows: under setting [2], greater than 10 µM; under setting [3], less than 10 µM. The corresponding values for `Cn1nnn(-c2cc(Nc3ncc(C#N)c(N[C@@H]4C[C@@H]5CCCN5C(C)(C)C4)n3)c(F)cc2OCC(C)(C)O)c1=O` [Compound 80, 4-((7R,8aS)-octahydro-5,5-dimethylindolizin-7-ylamino)-2-(4-(2-hydroxy-2-methylpropoxy)-2-fluoro-5-(4,5-dihydro-4-methyl-5-oxotetrazol-1-yl)phenylamino)pyrimidine-5-carbonitrile] are less than 0.1 µM and less than 10 µM. Take `CC1(C)Oc2ccc(Nc3ncc(F)c(NC4CC5CCCN5C(C)(C)C4)n3)cc2-n2nnnc21` (stereo not shown) [Compound 1, N2-(4,4-dimethyl-4H-benzo[b]tetrazolo[1,5-d][1,4]oxazin-8-yl)-5-fluoro-N4-(octahydro-5,5-dimethylindolizin-7-amine)pyrimidine-2,4-diamine]: the EC50 under setting [1] was less than 0.5 µM. For `CC1(C)C[C@H](Nc2nc(Nc3cc(S(F)(F)(F)(F)F)ccc3F)ncc2F)C[C@@H]2CCCN21` [Compound 71], the 50% effective concentration (EC50) under setting [2] was less than 1 µM and the EC50 under setting [3] is less than 10 µM. `CC1(C)C[C@@H](Nc2nc(Nc3cc(-n4cnnn4)c(C4CC4)cc3F)ncc2F)C[C@@H]2CC(F)(F)CN21` [Compound 43, N^2-(4-cyclopropyl-2-fluoro-5-(1H-tetrazol-1-yl)phenyl)-5-fluoro-N^4-((7S,8aR)-2,2-difluoro-octahydro-5,5-dimethylindolizin-7-yl)pyrimidine-2,4-diamine]: the EC50 by setting is: under setting [2], less than 10 µM; under setting [3], less than 10 µM.
